# Experimental data taken from ChEMBL document CHEMBL3882388, “Pharmaceutical Compositions Comprising Beta-Lactam Antibiotic, Sulbactam and Beta-Lactamase Inhibitor” (2014).
# Columns and labels:
# [1] = biological target: Beta-lactamase (Acinetobacter baumannii) (UniProt Q8RLA6); settings: S-10
# [2] = biological target: Beta-lactamase (Acinetobacter baumannii) (UniProt Q8RLA6); settings: NCTC 13305
# [3] = biological target: Beta-lactamase (Acinetobacter baumannii) (UniProt Q8RLA6); settings: S-15
# [4] = biological target: Beta-lactamase (Acinetobacter baumannii) (UniProt Q8RLA6); settings: S-10; remark: listed apart in the source
# [5] = biological target: Beta-lactamase (Acinetobacter baumannii) (UniProt Q8RLA6); settings: NCTC 13305; remark: listed apart in the source
# Acinetobacter baumannii [6] = assay: Antibacterial activity against extended-spectrum b-lactamase producing Acinetobacter baumannii S-8 incubated for 16 to 20 hrs by CLSI method; type: functional
# [7] = biological target: Beta-lactamase (Acinetobacter baumannii) (UniProt Q8RLA6); settings: S-8
# [8] = biological target: Beta-lactamase (Acinetobacter baumannii) (UniProt Q8RLA6); settings: NCTC 13301
# [9] = biological target: Beta-lactamase (Acinetobacter baumannii) (UniProt Q8RLA6); settings: NCTC 13304
# [10] = biological target: Beta-lactamase (Acinetobacter baumannii) (UniProt Q8RLA6); settings: NCTC 13305; remark: listed apart in the source
# [11] = biological target: Beta-lactamase (Acinetobacter baumannii) (UniProt Q8RLA6); settings: NCTC 13304; remark: listed apart in the source
# [12] = biological target: Beta-lactamase (Acinetobacter baumannii) (UniProt Q8RLA6); settings: S-15; remark: listed apart in the source
# [13] = biological target: Beta-lactamase (Acinetobacter baumannii) (UniProt Q8RLA6); settings: S-3
# [14] = biological target: Beta-lactamase (Acinetobacter baumannii) (UniProt Q8RLA6); settings: S-15; remark: listed apart in the source
# [15] = biological target: Beta-lactamase (Acinetobacter baumannii) (UniProt Q8RLA6); settings: NCTC 13301; remark: listed apart in the source
# [16] = biological target: Beta-lactamase (Acinetobacter baumannii) (UniProt Q8RLA6); settings: S-10; remark: listed apart in the source
# [17] = biological target: Beta-lactamase (Acinetobacter baumannii) (UniProt Q8RLA6); settings: NCTC 13301; remark: listed apart in the source
# [18] = biological target: Beta-lactamase (Acinetobacter baumannii) (UniProt Q8RLA6); settings: S-15; remark: listed apart in the source
# [19] = biological target: Beta-lactamase (Acinetobacter baumannii) (UniProt Q8RLA6); settings: S-4
# [20] = biological target: Beta-lactamase (Acinetobacter baumannii) (UniProt Q8RLA6); settings: S-8; remark: listed apart in the source
# [21] = biological target: Beta-lactamase (Acinetobacter baumannii) (UniProt Q8RLA6); settings: NCTC 13305; remark: listed apart in the source
# [22] = biological target: Beta-lactamase (Acinetobacter baumannii) (UniProt Q8RLA6); settings: NCTC 13304; remark: listed apart in the source
# [23] = biological target: Beta-lactamase (Acinetobacter baumannii) (UniProt Q8RLA6); settings: NCTC 13305; remark: listed apart in the source
# [24] = biological target: Beta-lactamase (Acinetobacter baumannii) (UniProt Q8RLA6); settings: NCTC 13304; remark: listed apart in the source
# [25] = biological target: Beta-lactamase (Acinetobacter baumannii) (UniProt Q8RLA6); settings: NCTC 13305; remark: listed apart in the source
# [26] = biological target: Beta-lactamase (Acinetobacter baumannii) (UniProt Q8RLA6); settings: NCTC 13304; remark: listed apart in the source
# [27] = biological target: Beta-lactamase (Acinetobacter baumannii) (UniProt Q8RLA6); settings: S-3; remark: listed apart in the source
# [28] = biological target: Beta-lactamase (Acinetobacter baumannii) (UniProt Q8RLA6); settings: S-15; remark: listed apart in the source
# [29] = biological target: Beta-lactamase (Acinetobacter baumannii) (UniProt Q8RLA6); settings: NCTC 13304; remark: listed apart in the source
# [30] = biological target: Beta-lactamase (Acinetobacter baumannii) (UniProt Q8RLA6); settings: S-8; remark: listed apart in the source
# [31] = biological target: Beta-lactamase (Acinetobacter baumannii) (UniProt Q8RLA6); settings: S-3; remark: listed apart in the source
# [32] = biological target: Beta-lactamase (Acinetobacter baumannii) (UniProt Q8RLA6); settings: S-3; remark: listed apart in the source
# [33] = biological target: Beta-lactamase (Acinetobacter baumannii) (UniProt Q8RLA6); assay: Inhibition of beta-lactamase in extended-spectrum b-lactamase producing Acinetobacter baumannii S-4 assessed as potentiation of cefpirome-induced antibacterial activity by measuring cefpirome MIC at 4 to 8 ug/ml incubated for 16 to 20 hrs by CLSI method
# Acinetobacter baumannii [34] = assay: Antibacterial activity against extended-spectrum b-lactamase producing Acinetobacter baumannii NCTC 13301 incubated for 16 to 20 hrs by CLSI method; type: functional
# [35] = biological target: Beta-lactamase (Acinetobacter baumannii) (UniProt Q8RLA6); settings: NCTC 13301; remark: listed apart in the source
# [36] = biological target: Beta-lactamase (Acinetobacter baumannii) (UniProt Q8RLA6); settings: S-8; remark: listed apart in the source
# [37] = biological target: Beta-lactamase (Acinetobacter baumannii) (UniProt Q8RLA6); settings: S-10; remark: listed apart in the source
# Acinetobacter baumannii [38] = assay: Antibacterial activity against extended-spectrum b-lactamase producing Acinetobacter baumannii NCTC 13305 incubated for 16 to 20 hrs by CLSI method; type: functional
# [39] = biological target: Beta-lactamase (Acinetobacter baumannii) (UniProt Q8RLA6); settings: S-4; remark: listed apart in the source
# [40] = biological target: Beta-lactamase (Acinetobacter baumannii) (UniProt Q8RLA6); settings: S-4; remark: listed apart in the source
# [41] = biological target: Beta-lactamase (Acinetobacter baumannii) (UniProt Q8RLA6); settings: NCTC 13301; remark: listed apart in the source
# [42] = biological target: Beta-lactamase (Acinetobacter baumannii) (UniProt Q8RLA6); settings: NCTC 13301; remark: listed apart in the source
# Acinetobacter baumannii [43] = assay: Antibacterial activity against extended-spectrum b-lactamase producing Acinetobacter baumannii NCTC 13304 incubated for 16 to 20 hrs by CLSI method; type: functional
# [44] = biological target: Beta-lactamase (Acinetobacter baumannii) (UniProt Q8RLA6); settings: S-4; remark: listed apart in the source
# [45] = biological target: Beta-lactamase (Acinetobacter baumannii) (UniProt Q8RLA6); settings: S-3; remark: listed apart in the source
# Acinetobacter baumannii [46] = assay: Antibacterial activity against extended-spectrum b-lactamase producing Acinetobacter baumannii S-15 incubated for 16 to 20 hrs by CLSI method; type: functional
# [47] = biological target: Beta-lactamase (Acinetobacter baumannii) (UniProt Q8RLA6); settings: S-4; remark: listed apart in the source
# [48] = biological target: Beta-lactamase (Acinetobacter baumannii) (UniProt Q8RLA6); settings: NCTC 13301; remark: listed apart in the source
# [49] = biological target: Beta-lactamase (Acinetobacter baumannii) (UniProt Q8RLA6); settings: NCTC 13301; remark: listed apart in the source
# [50] = biological target: Beta-lactamase (Acinetobacter baumannii) (UniProt Q8RLA6); settings: S-15; remark: listed apart in the source
# [51] = biological target: Beta-lactamase (Acinetobacter baumannii) (UniProt Q8RLA6); assay: Inhibition of beta-lactamase in extended-spectrum b-lactamase producing Acinetobacter baumannii S-3 assessed as potentiation of cefepime-induced antibacterial activity by measuring cefepime MIC at 4 to 8 ug/ml incubated for 16 to 20 hrs by CLSI method
# [52] = biological target: Beta-lactamase (Acinetobacter baumannii) (UniProt Q8RLA6); assay: Inhibition of beta-lactamase in extended-spectrum b-lactamase producing Acinetobacter baumannii NCTC 13301 assessed as potentiation of cefpirome-induced antibacterial activity by measuring cefpirome MIC at 4 to 8 ug/ml incubated for 16 to 20 hrs by CLSI method
# [53] = biological target: Beta-lactamase (Acinetobacter baumannii) (UniProt Q8RLA6); settings: NCTC 13304; remark: listed apart in the source
# [54] = biological target: Beta-lactamase (Acinetobacter baumannii) (UniProt Q8RLA6); settings: S-3; remark: listed apart in the source
# Acinetobacter baumannii [55] = assay: Antibacterial activity against extended-spectrum b-lactamase producing Acinetobacter baumannii S-3 incubated for 16 to 20 hrs by CLSI method; type: functional
# [56] = biological target: Beta-lactamase (Acinetobacter baumannii) (UniProt Q8RLA6); assay: Inhibition of beta-lactamase in extended-spectrum b-lactamase producing Acinetobacter baumannii NCTC 13301 assessed as potentiation of cefepime-induced antibacterial activity by measuring cefepime MIC at 4 to 8 ug/ml incubated for 16 to 20 hrs by CLSI method
# [57] = biological target: Beta-lactamase (Acinetobacter baumannii) (UniProt Q8RLA6); settings: S-8; remark: listed apart in the source
# [58] = biological target: Beta-lactamase (Acinetobacter baumannii) (UniProt Q8RLA6); assay: Inhibition of beta-lactamase in extended-spectrum b-lactamase producing Acinetobacter baumannii S-3 assessed as potentiation of cefpirome-induced antibacterial activity by measuring cefpirome MIC at 4 to 8 ug/ml incubated for 16 to 20 hrs by CLSI method
# [59] = biological target: Beta-lactamase (Acinetobacter baumannii) (UniProt Q8RLA6); settings: S-4; remark: listed apart in the source
# Acinetobacter baumannii [60] = assay: Antibacterial activity against extended-spectrum b-lactamase producing Acinetobacter baumannii S-4 incubated for 16 to 20 hrs by CLSI method; type: functional
# [61] = biological target: Beta-lactamase (Acinetobacter baumannii) (UniProt Q8RLA6); settings: S-10; remark: listed apart in the source
# [62] = biological target: Beta-lactamase (Acinetobacter baumannii) (UniProt Q8RLA6); assay: Inhibition of beta-lactamase in extended-spectrum b-lactamase producing Acinetobacter baumannii S-4 assessed as potentiation of cefepime-induced antibacterial activity by measuring cefepime MIC at 4 to 8 ug/ml incubated for 16 to 20 hrs by CLSI method
# [63] = biological target: Beta-lactamase (Acinetobacter baumannii) (UniProt Q8RLA6); settings: S-8; remark: listed apart in the source
# [64] = biological target: Beta-lactamase (Acinetobacter baumannii) (UniProt Q8RLA6); settings: S-10; remark: listed apart in the source
# [65] = biological target: Beta-lactamase (Acinetobacter baumannii) (UniProt Q8RLA6); settings: NCTC 13305; remark: listed apart in the source
# [66] = biological target: Beta-lactamase (Acinetobacter baumannii) (UniProt Q8RLA6); settings: NCTC 13305; remark: listed apart in the source
# [67] = biological target: Beta-lactamase (Acinetobacter baumannii) (UniProt Q8RLA6); settings: NCTC 13304; remark: listed apart in the source
# Acinetobacter baumannii [68] = assay: Antibacterial activity against extended-spectrum b-lactamase producing Acinetobacter baumannii S-10 incubated for 16 to 20 hrs by CLSI method; type: functional
# Chain of Beta-lactamase (Acinetobacter baumannii) (Q8RLA6 as listed by the source): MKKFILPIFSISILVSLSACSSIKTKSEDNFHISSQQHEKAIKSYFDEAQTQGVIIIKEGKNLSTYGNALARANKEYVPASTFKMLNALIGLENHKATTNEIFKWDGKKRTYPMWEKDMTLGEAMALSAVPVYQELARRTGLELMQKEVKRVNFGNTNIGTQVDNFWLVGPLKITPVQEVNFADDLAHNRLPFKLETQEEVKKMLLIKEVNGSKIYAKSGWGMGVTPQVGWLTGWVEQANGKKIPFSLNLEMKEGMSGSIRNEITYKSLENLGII
compound,measurement,setting,value
NC(=O)[C@@H]1CC[C@@H]2CN1C(=O)N2OS(=O)(=O)O,MIC,[1],8 µg/mL
same,MIC,[2],< 0.06 µg/mL
same,MIC,[3],0.5 µg/mL
same,MIC,[4],< 0.03 µg/mL
same,MIC,[5],< 0.06 µg/mL
same,MIC,Acinetobacter baumannii [6],> 64 µg/mL
same,MIC,[7],0.5 µg/mL
same,MIC,[8],< 0.06 µg/mL
same,MIC,[9],< 0.06 µg/mL
same,MIC,[10],< 0.06 µg/mL
same,MIC,[11],< 0.06 µg/mL
same,MIC,[12],0.12 µg/mL
same,MIC,[13],0.5 µg/mL
same,MIC,[14],8 µg/mL
same,MIC,[15],< 0.06 µg/mL
same,MIC,[16],< 0.03 µg/mL
same,MIC,[17],< 0.06 µg/mL
same,MIC,[18],0.5 µg/mL
same,MIC,[19],4 µg/mL
same,MIC,[20],8 µg/mL
same,MIC,[21],< 0.06 µg/mL
same,MIC,[22],< 0.06 µg/mL
same,MIC,[23],< 0.06 µg/mL
same,MIC,[24],< 0.06 µg/mL
same,MIC,[25],< 0.06 µg/mL
same,MIC,[26],< 0.06 µg/mL
same,MIC,[27],1 µg/mL
same,MIC,[28],8 µg/mL
same,MIC,[29],< 0.06 µg/mL
same,MIC,[30],8 µg/mL
same,MIC,[31],4 µg/mL
same,MIC,[32],4 µg/mL
same,MIC,[33],32 µg/mL
same,MIC,Acinetobacter baumannii [34],> 64 µg/mL
same,MIC,[35],< 0.06 µg/mL
same,MIC,[36],0.5 µg/mL
same,MIC,[37],< 0.03 µg/mL
same,MIC,Acinetobacter baumannii [38],> 64 µg/mL
same,MIC,[39],0.5 µg/mL
same,MIC,[40],1 µg/mL
same,MIC,[41],< 0.06 µg/mL
same,MIC,[42],< 0.06 µg/mL
same,MIC,Acinetobacter baumannii [43],> 64 µg/mL
same,MIC,[44],4 µg/mL
same,MIC,[45],1 µg/mL
same,MIC,Acinetobacter baumannii [46],> 64 µg/mL
same,MIC,[47],0.5 µg/mL
same,MIC,[48],< 0.06 µg/mL
same,MIC,[49],< 0.06 µg/mL
same,MIC,[50],0.12 µg/mL
same,MIC,[51],32 µg/mL
same,MIC,[52],> 32 µg/mL
same,MIC,[53],< 0.06 µg/mL
same,MIC,[54],0.5 µg/mL
same,MIC,Acinetobacter baumannii [55],> 64 µg/mL
same,MIC,[56],> 32 µg/mL
same,MIC,[57],0.5 µg/mL
same,MIC,[58],32 µg/mL
same,MIC,[59],1 µg/mL
same,MIC,Acinetobacter baumannii [60],> 64 µg/mL
same,MIC,[61],8 µg/mL
same,MIC,[62],32 µg/mL
same,MIC,[63],0.5 µg/mL
same,MIC,[64],< 0.03 µg/mL
same,MIC,[65],< 0.06 µg/mL
same,MIC,[66],< 0.06 µg/mL
same,MIC,[67],< 0.06 µg/mL
same,MIC,Acinetobacter baumannii [68],> 64 µg/mL
